Reference: patent US8507507B2, “Modulators of toll-like receptors” (Gilead Sciences, Inc., priority 2009, dated 2013)
Where two headings read alike, the source gives them in different places.

System: human Peripheral Blood Mononuclear Cell (PMBC)
Assay: PBMC assay: cytokine (IFN-α) stimulation at 24 hours
Assay type: cell-based
Conditions: IFN-α in supernatant (Luminex), three fold above background; for minimal effective concentration: read-out: MEC = minimum concentration for induction of IFN-alpha = 3-fold over background
Protocol: Assays were conducted to determine cytokine stimulation at 24 hours from human Peripheral Blood Mononuclear Cell (PMBC) using the compounds of the present invention. The assays were run in duplicate, with 8-point, half-log dilution curves. The compounds of the present invention were diluted from 10 mM DMSO solution. Cell supernatants are assayed directly for IFNα and 1:10 dilution for TNFα. The assays were performed in a similar fashion as described in Bioorg. Med. Chem. Lett. 16, 4559, (2006). Specifically, cryo-preserved PBMCs were thawed and seeded 96 well plates with 750,000 cells/well in 190 μL/well cell media. The PBMCs were then incubated for 1 hour at 37° C. at 5% CO2. Then, the compounds of the present invention were added in 10 μL cell media at 8 point, half-log dilution titration. The plates were incubated at 37° C. and 5% CO2 for 24 hours and then spinned at 1200 rpm for 10 min, which was followed by collecting supernatant and storing the same at −80° C. Cytokine secretion was assayed with Luminex® (brand of Multiplexing bead-based platform, Luminx® Corporation Austin Tex. USA) and Upstate Biosciences® (Upstate Biosciences®, Charlottesville, Va., USA) multi-plex kits, using a Luminex® analysis instrument. IFN MEC value for a compound was the minimum concentration at which IFN-α production stimulated by the compound reached three fold above background, as determined using the assay method above.

SMILES	minimal effective concentration (Homo sapiens, PBMC, 24 h)	other results
COCCOc1nc(N)c2[nH]c(=O)n(Cc3ccc(-c4cccc(CN5CCOCC5)c4)cc3)c2n1 [Y]	0.001 to 0.009 µM	
COCCOc1nc(N)c2[nH]c(=O)n(Cc3ccc(-c4ccc(CN5CCCC5)cc4)cc3)c2n1 [U]	0.001 µM	
CCN1CCc2ncc(-c3ccc(Cn4c(=O)[nH]c5c(N)nc(OCCOC)nc54)cc3)cc2C1 [AE]	0.001 µM	
Nc1nc(OCC2CCOCC2)nc2c1[nH]c(=O)n2Cc1ccc(-c2cccc(CN3CCCC3)c2)cc1 [AQ]	0.001 µM	
COCCOc1nc(N)c2[nH]c(=O)n(Cc3ccc(-c4ccc(CN5CCCC5)cc4)c(F)c3)c2n1 [AL]	0.001 µM	
COCCOc1nc(N)c2[nH]c(=O)n(Cc3ccc(-c4cc(CN5CCCC5)cc(C(F)(F)F)c4)cc3)c2n1 [AM]	0.01 to 0.099 µM	
CCCCOc1cc2c([nH]c(=O)n2Cc2ccc(-c3ccc(CN4CCCC4)cc3)nc2)c(N)n1 [BG]	0.001 µM	
CCCCOc1nc(N)c2[nH]c(=O)n(Cc3ccnc(-c4ccc(CN5CCCC5)cc4)c3)c2n1 [I]	0.001 µM	
COCCOc1nc(N)c2[nH]c(=O)n(Cc3cc(-c4ccc(CN5CCCC5)cc4)ccc3Cl)c2n1 [AB]	0.1 to 1 µM	
CCCCOc1nc(N)c2[nH]c(=O)n(Cc3ccc(-c4ccc(CN5CCCC5)cc4)nc3)c2n1 [H]	0.001 µM	
Nc1nc(OCC2CCOCC2)nc2c1[nH]c(=O)n2Cc1ccc(-c2ccc(CN3CCCC3)nc2)cc1 [AU]	0.001 µM	
CCCCOc1cc2c([nH]c(=O)n2Cc2ccc(-c3ccc(CN4CCCC4)cc3)cc2)c(N)n1 [BC]	0.001 µM	
CCCCOc1nc(N)c2[nH]c(=O)n(Cc3cccc(-c4cccc(CN5CCCC5)c4)c3)c2n1 [B]	0.01 to 0.099 µM	
CCCCOc1nc(N)c2[nH]c(=O)n(Cc3ccc(-c4ccccc4CN4CCCC4)cc3)c2n1 [D]	0.001 µM	
CCCCOc1nc(N)c2[nH]c(=O)n(Cc3cccc(-c4ccc(CN5CCCC5)cc4)c3)c2n1 [C]	0.001 to 0.009 µM	
COCCOc1nc(N)c2[nH]c(=O)n(Cc3ccc(-c4ccc(CN5CCCC5)cc4)cc3F)c2n1 [AJ]	0.001 µM	
Nc1nc(OCC2CCOCC2)cc2c1[nH]c(=O)n2Cc1ccc(-c2cccc(CN3CCCC3)c2)nc1 [BD]	0.001 µM	
CCCCOc1nc(N)c2[nH]c(=O)n(Cc3ccc(-c4ccc(CN5CCCC5)cc4)cn3)c2n1 [J]	0.001 µM	
Nc1nc(OCC2CCOCC2)nc2c1[nH]c(=O)n2Cc1ccc(-c2ccc(CN3CCCC3)cc2)cc1 [AR]	0.001 µM	
CCCCOc1nc(N)c2[nH]c(=O)n(Cc3ccc(-c4ccc(CN5CCCC5)cn4)cc3)c2n1 [O]	0.001 µM	

SMILES	minimal effective concentration (Homo sapiens, PBMC, 24 h)	other results
COCCOc1nc(N)c2[nH]c(=O)n(Cc3ccc(-c4cccc(CN5CCCC5)c4)c(C(F)(F)F)c3)c2n1 [AO]	0.001 µM	
CCCCOc1nc(N)c2[nH]c(=O)n(Cc3ccc(-c4cccc(CN5CCCC5)c4)cc3)c2n1 [E]	0.001 µM	
Nc1nc(OCC2CCOCC2)nc2c1[nH]c(=O)n2Cc1ccc(-c2ccc(CN3CCCC3)cn2)cc1 [AV]	0.001 µM	
COCCOc1nc(N)c2[nH]c(=O)n(Cc3ccc(-c4ccc(CN5CCCC5)cc4)c(Cl)c3)c2n1 [AI]	0.001 µM	
CCCCOc1nc(N)c2[nH]c(=O)n(Cc3ccc(-c4ccc(CN5CCCC5)c(F)c4)cc3)c2n1 [S]	0.001 µM	
CCCCOc1nc(N)c2[nH]c(=O)n(Cc3cnc(-c4cccc(CN5CCCC5)c4)s3)c2n1 [L]	0.001 µM	
CCCCOc1nc(N)c2[nH]c(=O)n(Cc3ccc(-c4ncc(CN5CCCC5)s4)cc3)c2n1 [Q]	0.001 µM	
Nc1nc(OCC2CCOCC2)nc2c1[nH]c(=O)n2Cc1ccc(-c2cccc(CN3CCCC3)c2)c(C(F)(F)F)c1 [AT]	0.001 µM	
Nc1nc(OCC2CCOCC2)cc2c1[nH]c(=O)n2Cc1ccc(-c2csc(CN3CCCC3)n2)cc1 [BB]	0.001 to 0.009 µM	
COCCOc1nc(N)c2[nH]c(=O)n(Cc3ccc(-c4cccc(CN5CCCC5)c4)nc3)c2n1 [AG]	0.001 µM	
COCCOc1nc(N)c2[nH]c(=O)n(Cc3ccc(-c4ccc(C(C)N5CCCC5)cc4)cc3)c2n1 (centres unmarked) [V]	0.001 µM	
COCCOc1nc(N)c2[nH]c(=O)n(Cc3ccc(-c4cccc(CN5CCN(C)CC5)c4)cc3)c2n1 [Z]	0.001 µM	
COCCOc1nc(N)c2[nH]c(=O)n(Cc3ccc(-c4ccc(CN5CCCC5)cc4)c(C(F)(F)F)c3)c2n1 [AN]	0.001 µM	
COCCOc1nc(N)c2[nH]c(=O)n(Cc3ccc(-c4cccc(CN5CCCC5)c4)cc3)c2n1 [T]	0.001 µM	
COCCOc1cc2c([nH]c(=O)n2Cc2ccc(-c3cccc(CN4CCCC4)c3)cc2)c(N)n1 [AW]		minimal effective concentration: 0.001 to 0.009 µM
Nc1nc(OCC2CCOCC2)cc2c1[nH]c(=O)n2Cc1ccc(-c2ccc(CN3CCCC3)cc2)nc1 [BE]	0.001 µM	
CCCCOc1cc2c([nH]c(=O)n2Cc2ccc(-c3cccc(CN4CCCC4)c3)nc2)c(N)n1 [BF]	0.001 µM	
CCCCOc1nc(N)c2[nH]c(=O)n(Cc3ccc(-c4ccc(CN5CCCC5)nc4)cc3)c2n1 [N]	0.001 µM	
COCCOc1nc(N)c2[nH]c(=O)n(Cc3ccc(-c4ccc(CN5CCCC5)nc4)cc3)c2n1 [AD]	0.001 µM	
CCCCOc1nc(N)c2[nH]c(=O)n(Cc3ccc(-c4cccc(CN5CCCC5)c4)nc3)c2n1 [G]	0.001 µM	

SMILES	minimal effective concentration (Homo sapiens, PBMC, 24 h)	other results
CCCCOc1nc(N)c2[nH]c(=O)n(Cc3ccc(-c4nc(CN5CCCC5)cs4)cc3)c2n1 [P]	0.001 µM	
COCCOc1nc(N)c2[nH]c(=O)n(Cc3ccc(-c4cccc(CN5CCCCC5)c4)cc3)c2n1 [W]	0.001 µM	
Nc1nc(OCC2CCOCC2)nc2c1[nH]c(=O)n2Cc1ccc(-c2ccc(CN3CCCC3)cc2)c(C(F)(F)F)c1 [AS]	0.001 µM	
Nc1nc(OCC2CCOCC2)cc2c1[nH]c(=O)n2Cc1ccc(-c2ccc(CN3CCCC3)cc2)cc1 [AZ]	0.001 µM	
COCCOc1nc(N)c2[nH]c(=O)n(Cc3ccc(-c4ccc(CN5CCCC5)cc4)cc3)c2n1 [AX]		MEC = minimum concentration for induction of IFN-alpha = 3-fold over background: b (b: 1 nM-9 nM)
COCCOc1nc(N)c2[nH]c(=O)n(Cc3ccc(-c4ccc(CN5CCCC5)cc4)cc3Cl)c2n1 [AH]	0.001 µM	
COCCOc1nc(N)c2[nH]c(=O)n(Cc3cc(-c4cccc(CN5CCCC5)c4)ccc3Cl)c2n1 [AA]	0.1 to 1 µM	
COCCOc1nc(N)c2[nH]c(=O)n(Cc3ccc(-c4ccc(CN5CCCC5)cn4)cc3)c2n1 [AC]	0.001 µM	
CCCCOc1nc(N)c2[nH]c(=O)n(Cc3cnc(-c4ccc(CN5CCCC5)cc4)s3)c2n1 [Example M]	0.001 µM	
COCCOc1nc(N)c2[nH]c(=O)n(Cc3ccc(-c4ccc(CN5CCOCC5)cc4)cc3)c2n1 [X]	0.001 µM	
COCCOc1nc(N)c2[nH]c(=O)n(Cc3ccc(-c4ccc(CCCN5CCCC5)nc4)cc3)c2n1 [AP]	0.001 µM	
CCCCOc1nc(N)c2[nH]c(=O)n(Cc3cccc(-c4ccccc4CN4CCCC4)c3)c2n1 [A]	0.1 to 1 µM	
CCCCOc1nc(N)c2[nH]c(=O)n(Cc3ccc(-c4cccc(CN5CCCC5)c4)cn3)c2n1 [K]	0.001 µM	
COCCOc1nc(N)c2[nH]c(=O)n(Cc3ccc(-c4ccc(CN5CCCC5)cc4)nc3)c2n1 [AF]	0.001 µM	
COCCOc1nc(N)c2[nH]c(=O)n(Cc3ccc(-c4ccc(CN5CCCC5)cc4)cc3)c2c1Cl [AY]	0.01 to 0.099 µM	
CCCCOc1nc(N)c2[nH]c(=O)n(Cc3ccc(-c4cc(CN5CCCC5)ccc4OC)cc3)c2n1 [R]	0.001 µM	
COCCOc1nc(N)c2[nH]c(=O)n(Cc3ccc(-c4ccc(CN5CCCC5)cc4)cc3C#N)c2n1 [AK]	0.001 µM	
Nc1nc(OCC2CCOCC2)cc2c1[nH]c(=O)n2Cc1ccc(-c2ccc(CN3CCCC3)nc2)cc1 [BA]	0.001 µM	
CCCCOc1nc(N)c2[nH]c(=O)n(Cc3ccc(-c4ccc(CN5CCCC5)cc4)cc3)c2n1 [F]	0.001 µM	
